Assay [1] concerns Ikaros (IKZF1), Aiolos (IKZF3) and ZFP91. Description: Substrate degradation by immunoblotting. Format: cell-based. The conditions noted are these: single agent. The method, then:
Effect of NEK2 downregulation on Compound 5 and Compound 6-induced substrate degradation. […] The effect of NEK2 knockdown on pomalidomide mediated substrate degradation was also studied. Control and NEK2 shRNA cells were incubated to varying concentrations of pomalidomide. Pomalidomide treatment degraded Ikaros (IKZF1), Aiolos (IKZF3) and ZFP91 in a concentration dependent manner in control shRNA lines. A similar pattern of substrate degradation was maintained in NEK2 knockdown cell lines.
(In general: In western blotting, separated proteins are transferred to a membrane and probed.)

The subject of a further assay is H929-PR cell line. Description: Proliferation assay. The conditions noted are these: isogenic sensitive/resistant comparison, read-out: IC50 concentration, proliferation. It is filed as cell-based. The method, then: (§1) Proliferation and viability assay. Cell growth curves were determined by monitoring the viability of cells with Trypan blue exclusion on a Vi-Cell-XR (Becton Dickinson, Franklin Lakes, N.J., USA). Cell lines were plated in triplicate in 96-well round-bottom plates with the indicated drug concentrations or knockdown cells. Proliferation assays were performed in triplicate at least three times (n=3) using either the WST-1 tetrazolium salt (Roche Applied Science) reagent used according to the manufacturer's specifications or by (3H)-thymidine incorporation as previously described (Bjorklund et al., Blood Cancer Journal 5, e354, 2015). All data were plotted and analyzed using GraphPad Prism 7 (GraphPad Software, La Jolla, Calif., USA) software, represented as the mean with an error determined as ±s.d.

For another assay, the system named is Mc-CAR cell line. Description: Proliferation assay. Format: cell-based. The conditions noted are these: 72 h; MC-CAR; Day 3 post treatment; NEK2 inhibitor; read-out: IC50 concentration, proliferation. Here is the method:
(§2) Proliferation and viability assays: Cell growth curves were determined by monitoring the viability of cells with Trypan blue exclusion on a Vi-Cell-XR (Becton Dickinson, Franklin Lakes, N.J., USA). Proliferation assays were performed in triplicate at least three times (n=3) using (3H)-thymidine incorporation. All data were plotted and analyzed using GraphPad Prism 7 (GraphPad Software, La Jolla, Calif., USA) software, represented as the mean with an error determined as ±s.d.
as §1

The next assay has as its system H929 cell line. Description: Proliferation assay. It is filed as cell-based. The conditions noted are these: Homo sapiens, read-out: IC50 concentration, proliferation. The method, then: as §2, §1
Another assay deals with AMO1 cell line. Description: Proliferation assay. It is filed as cell-based. The conditions noted are these: AMO1; for IC50: Homo sapiens, read-out: IC50 concentration, proliferation. Here is the method: as §2
(§3) Proliferation and viability assay. Cell growth curves were determined by monitoring the viability of cells with Trypan blue exclusion on a Vi-Cell-XR (Becton Dickinson, Franklin Lakes, N.J., USA). Cell lines were plated in triplicate in 96-well round-bottom plates with the indicated drug concentrations or knockdown cells. […] All data were plotted and analyzed using GraphPad Prism 7 (GraphPad Software, La Jolla, Calif., USA) software, represented as the mean with an error determined as ±s.d.

For a further assay, the system named is K12PE cell line. Description: Proliferation assay. Particulars: for IC50: K12PE, read-out: IC50 concentration, proliferation. It is filed as cell-based. The method, then:
as §2, §3

Assay [2] relates to AMO1-PR (pomalidomide resistant) cell line. Description: Proliferation assay. Format: cell-based. The conditions noted are these: for IC50: isogenic sensitive/resistant comparison, read-out: IC50 concentration, proliferation. The method, then:
as §2, §3

The subject of the next assay is K12PE-PR cell line. Description: Proliferation assay. Format: cell-based. Particulars: for IC50: K12PE-PR, isogenic sensitive/resistant comparison, read-out: IC50 concentration, proliferation. The method, then: as §2, §3
For the next assay, the system named is Control shRNA cell lines. Description: Biparametric Annexin V and Propidium Iodide assay. Format: cell-based. Here is the method: (§4) Biparametric assay for detection of cell cycle and apoptosis. Cell viability assay with Annexin V-FITC and propidium iodide was performed according to the published protocol cycle (Rieger et al., J Vis Exp. 2011, (50):2597; Léonce et al., Mol Pharmacol. 2001, 60(6):1383-1391).
(§5) Pomalidomide treatment combined with NEK2 inhibition increases apoptosis. Biparametric Annexin V and Propidium Iodide (PI) assay was performed to analyze cell cycle and apoptosis in the same sample and to quantify the proportion of cells undergoing apoptosis at each phase of cell cycle (Rieger et al., J Vis Exp. 2011, (50):2597; Léonce et al., Mol Pharmacol. 2001, 60(6):1383-1391). Control shRNA and NEK2 shRNA cell lines were treated with pomalidomide and followed cell cycle and apoptosis for the duration of two cell cycles. At 72 hours about 5.04% cells in the control shRNA lines were apoptotic compared to 21.1% apoptotic cells in NEK2 shRNA cell lines. […] At 96 hours about 9.5% of the cells in control shRNA lines and 24.7% of the NEK2 shRNA cell lines were apoptotic, and a majority of apoptotic cells were again contributed from G1-S phase of cell cycle. […] Combination of these two agents results in apoptosis of 20-25% cells in each cycle, with majority of apoptotic cells contributed from G1/S phase of cell cycle.

In another assay the test system is NEK2 shRNA cell lines. Description: Biparametric Annexin V and Propidium Iodide assay. It is filed as cell-based. Here is the method: as §4, §5
Assay [3] relates to CKS1B and E2F2 in EJM and EJM-PR cell lines. Description: CKS1B and E2F2 in response to Pom. It is filed as cell-based. The conditions noted are these: isogenic EJM and EJM-PR; FIG. 12. Here is the method:
Effects of Pomalidomide (Pom) on CKS1B and E2F2 in Pom sensitive and resistant cell lines. […] Since Aiolos was not degraded in the EJM-PR cell line consistent with the absence of CKS1B and E2F2 downregulation, the binding of Aiolos on the transcriptional start sites (TSS) of CKS1B and E2F2 was analyzed.

Assay [4] deals with PLK1 signaling in MM1.S cells. Description: Immunoblot of PLK1 signaling. The conditions noted are these: MMS.1 cells, increasing concentrations; FIG. 2C. It is filed as cell-based. The method, then: (§6) Immunoblotting: Immunoblot analysis was performed using WES kits, (Protein Simple, San Jose, Calif., USA) at least two times each (n≥2), where the best representative is shown.
(§7) The effects of pomalidomide in isogenic sensitive (EJM) and resistant (EJM-PR) and MM1.S cell lines was analyzed. […] To determine the role of PLK1 in pomalidomide response, EJM and EJM-PR cell lines were treated with pomalidomide and analyzed changes in PLK1 levels and downstream signaling. […] The changes in PLK1 transcript levels were further examined in response to pomalidomide treatment in MM1. […] Confocal microscopy was performed to study changes in PLK1 and CDC25C staining in MM1.S cells and a decrease in PLK1 levels and simultaneous decrease in CDC25C staining in response to pomalidomide and Compound 5 treatments was observed. […] Further analysis of the ChIP-seq datasets of Aiolos confirmed binding of Aiolos on TSS of PLK1 with overlapping transcriptional activation H3K27Ac signature extrapolated from publicly available ChIP-seq datasets in GM12878 cell line (Encode project). Since changes in PLK1 levels are due to decrease in PLK1 transcription in response to antiproliferative compounds, the effects of Aiolos and Ikaros knockdowns on PLK1 levels using MM1.S cells with inducible expression of Aiolos and Ikaros shRNAs were analyzed. Both Aiolos and Ikaros knock down lead to a decrease in PLK1 levels (FIG. 2F), indicating transcriptional regulation of PLK1 by substrates of Cereblon.

The subject of assay [5] is PLK1, pCDC25C and CDC25C in EJM cells. Description: Immunoblot of PLK1 signaling. Format: cell-based. Particulars: EJM (sensitive) cells only, not EJM-PR. Here is the method: as §6, §7
Assay [6] deals with PLK1 transcript in MM1.S cells. Description: PLK1 transcript levels (qPCR). Format: cell-based. The conditions noted are these: FIG. 2D. The method, then:
RNA Extraction, Reverse Transcription, and Real-Time PCR Analysis: Total RNA was extracted using a RNeasy plus kit (Qiagen, Germantown, Md., USA) and reverse-transcribed using an iScrip reverse transcription kit (Bio-Rad, Philadelphia, Pa., USA). Quantitative real-time PCR (qPCR) analyses were performed using Taqman PCR Master Mix and the ViiA 7 Real-Time PCR System (Applied Biosystems, Foster City, Calif., USA). Gene expressions were calculated following normalization to GAPDH levels using the comparative CT method (ΔΔCT method). The primer sequences for qPCR are following:
The effects of pomalidomide in isogenic sensitive (EJM) and resistant (EJM-PR) and MM1.S cell lines was analyzed. […] To determine the role of PLK1 in pomalidomide response, EJM and EJM-PR cell lines were treated with pomalidomide and analyzed changes in PLK1 levels and downstream signaling. […] The changes in PLK1 transcript levels were further examined in response to pomalidomide treatment in MM1. […] Since changes in PLK1 levels are due to decrease in PLK1 transcription in response to antiproliferative compounds, the effects of Aiolos and Ikaros knockdowns on PLK1 levels using MM1.S cells with inducible expression of Aiolos and Ikaros shRNAs were analyzed. […]
In general terms: In qPCR the cycle at which signal appears reflects the starting amount.

For assay [7], the system named is other kinases, including Cdk1 and Aurora B. Particulars: selective inhibitors of NEK2; Henise 2011, Innocenti 2012; cited from earlier work.
[8] abbreviates: NCI-H929, 72 h, Day 3 post treatment, NEK2 inhibitor.
The mark [9] stands for this setting: NCI-H929, isogenic sensitive/resistant comparison.
[10] abbreviates: 72 h, Day 3 post treatment, NEK2 inhibitor.
[11] abbreviates: isogenic sensitive/resistant comparison.

Where two headings read alike, the source gives them in different places.

`C#CC(=O)Nc1ccc2c(c1)/C(=C/c1[nH]c(CC)nc1C)C(=O)N2` [JH295, (Z)—N-(3-((2-ethyl-4-methyl-1H-imidazol-5-yl)methylene)-2-oxoindolin-5-yl)propiolamide]: in assay [1], the “substrate degradation (Ikaros, Aiolos, ZFP91) in comparison to DMSO control” value is listed as “No effect”. The IC50 turned out to be 270 nM in the assay on H929-PR cell line; 560 nM in the assay on Mc-CAR cell line; 0.37 µM in the assay with H929 cell line (setting [8]); 0.37 µM in the assay with H929 cell line (setting [9]); 0.48 µM in the assay with AMO1 cell line (setting [10]); 0.48 µM with AMO1 cell line (setting [11]). The IC50 stood at 4 µM with K12PE cell line (setting [10]), 4 µM in the assay with K12PE cell line (setting [11]), 310 nM in assay [2] and 10.8 µM in the assay with K12PE-PR cell line.

Consider `Nc1cccc2c1C(=O)N(C1CCC(=O)NC1=O)C2=O` (stereo not drawn) [Compound 1, 4-amino-2-(2,6-dioxopiperidine-3-yl)isoindoline-1,3-dione], for which the apoptotic cells result in the assay with Control shRNA cell lines (72 hours) is “about 5.04%”; in the assay with Control shRNA cell lines (96 hours), “about 9.5%”; in the assay with NEK2 shRNA cell lines (72 hours) it was 21.1%; in the assay with NEK2 shRNA cell lines (96 hours), 24.7%. Also, the “CKS1B and E2F2 expression” value in assay [3] is “downregulated at the transcriptional level only in Pom sensitive cells”. In [4], the PLK1 signaling result is on record as “dose dependent decrease”. In addition, the “PLK1 levels and downstream effector pCDC25C and CDC25C” value in assay [5] was “dose dependent decrease”. Moreover, the “Synergy with trametinib on proliferation” value (with AMO1 cell line (in combination with trametinib); in [2] (in combination with trametinib)) was “strong synergy” each time. The “Synergy analysis (Calcusyn) of combination with JQ1 on proliferation” value with K12PE cell line (K12PE cells, in combination with JQ1) was “synergistic”. The “Synergy of combination with JQ1 on proliferation” value in the assay on K12PE-PR cell line (Pom resistant K12PE-PR, in combination with JQ1) is given as “synergistically decreased proliferation”. Further, in assay [6], the PLK1 transcript levels entry is reported as “decreased PLK1 transcript levels in a dose dependent manner”.

As to `CC(/C=C\C(F)(F)F)Oc1cc(-c2cc(-c3cc(CN(C)C)cs3)cnc2N)ccc1C(N)=O` (racemic) [Rac-CCT 250863, 4-[2-amino-5-[4-[(dimethylamino)methyl]-2-thienyl]-3-pyridinyl]-2-[[(2Z)-4,4,4-trifluoro-1-methyl-2-buten-1-yl]oxy]benzamide], the IC50 with H929-PR cell line came out at 5200 nM; in the assay on H929 cell line (setting [8]) it was 8 µM; with H929 cell line (setting [9]) it was 7.9 µM; in the assay with AMO1 cell line (setting [10]), 7.1 µM; in the assay on AMO1 cell line (setting [11]), 7 µM; in the assay with K12PE cell line (setting [10]) it was 8.7 µM. Further, the IC50 came to 8.5 µM in the assay on K12PE cell line (setting [11]), 3600 nM in [2] and 5.17 µM with K12PE-PR cell line. For the same compound, in assay [7], the “Selectivity: effect on other kinases, including Cdk1 and Aurora B” value is recorded as “low effect on other kinases”.
